This note sets out measurements from the COVID Moonshot data (paper PMC7615835).

Molecules are shown by their SMILES. “And” between values parts separate entries of the source, which are not always exact repeats. Equal values may be shown once.

In the test the target is SARS-CoV-2 Main Protease (SARS-CoV-2) (UniProt P0DTD1).
For orientation: IC50 means the concentration needed to halve the response being measured. As for `COCC1(C(=O)Nc2cncc3ccccc23)CCOc2cc(Cl)c(Cl)cc21` (stereo unspecified), the IC50 worked out at 4040 nM.
With `CC(C)(C)c1ccc(N(C(=O)c2cn(CCN3CCOCC3)nn2)C(C(=O)NCCc2cccc(F)c2)c2cccnc2)cc1` (stereo unspecified) the figure was 10500 nM; with `CN1CCN(c2ccc(Nc3cc(Cl)cc(CC(=O)Nc4cncc5ccccc45)c3)cc2F)CC1`, 2800 nM.
To `O=C(Cc1cc(Cl)cc(NCc2cc(F)ccc2Br)c1)Nc1cncc2ccccc12` belongs 1880 nM.
With `CC1(C(=O)Nc2cncc3c2CCCC3)CNS(=O)(=O)c2ccc(Cl)cc21` (stereo unspecified) the figure was over 99500 nM; with `O=C1NCC(C(=O)Nc2cncc3cc(F)ccc23)c2cc(Cl)ccc21` (stereo unspecified), 1150 nM; with `O=C(Nn1cnc2ccccc21)C(Cc1cccc(Cl)c1)c1ccc(N2CCOCC2)cc1` (stereo unspecified), over 99500 nM.
On to `Cc1ncc(CN2Cc3ccc(Cl)cc3C(C(=O)Nc3cncc4ccc(F)cc34)C2)[nH]1` (stereo unspecified), for which the IC50 amounted to 307 nM.
To `CCCc1cc2c(cc1S(=O)(=O)N1CCN(c3ccccc3OC)CC1)OCO2` belongs over 99500 nM; to `O=C(CC1(C(=O)Nc2cncc3ccccc23)CCOc2ccc(Cl)cc21)N1CCOCC1CC(F)F` (stereo unspecified), 7680 nM and 12600 nM.
Regarding `CC(=O)N(c1ccc(N)cc1)c1cc(Cl)cc(CC(=O)Nc2cncc3ccccc23)c1`, the IC50 was determined as 2320 nM.
Consider `CNC(=O)Nc1ccc(N(Cc2ccsc2)C(=O)Cn2nnc3ccccc32)cc1`, for which the IC50 amounted to 1420 nM.
`O=C(Nc1cncc2ccccc12)C1(CO)CCOc2ccc(Cl)cc21` (stereo unspecified) showed an IC50 of 1090 nM.
In turn, `COc1ccccc1N1CCN(c2cc(Cl)cc(CC(=O)Nc3cncc4ccccc34)c2)CC1` showed an IC50 of 2980 nM.
With `O=C1NC2(COc3ccc(Cl)cc32)C(=O)N1c1cncc2ccc(F)cc12` (stereo unspecified) the figure was 1380 nM; with `O=C(Cc1cc(Cl)cc(Nc2c(Cl)c(F)nc(F)c2Cl)c1)Nc1cncc2ccccc12`, 2160 nM.
`O=C(Cc1cc(Cl)cc(Nc2cccc(N3CCOCC3)c2)c1)Nc1cncc2ccccc12` yielded an IC50 of 2440 nM.
On to `CC(C)(C)c1ccc(N(C(=O)c2[nH]nc(O)c2CCO)C(C(=O)NCCc2cccc(F)c2)c2cccnc2)cc1` (stereo unspecified), for which the IC50 is over 99500 nM.
Regarding `Cc1nocc1C(=O)N1Cc2ccc(Cl)cc2C(C(=O)Nc2cncc3ccccc23)C1` (stereo unspecified), the IC50 came to 168 nM.
With `CN(C)c1ccc(N(Cc2ccn[nH]2)C(=O)Cn2nnc3ccccc32)cc1` the figure was 15900 nM; with `CC1(c2ccc(N(C(=O)c3cocn3)C(C(=O)NCCc3cccc(F)c3)c3cccnc3)cc2)OCCO1` (stereo unspecified), 83100 nM; with `CC(C)(CNC(=O)C1CNC(=O)N1)N1CCc2ccccc2C1` (stereo unspecified), over 99500 nM.
Molecule `Cn1ccn2c(CNc3nc4ccccc4s3)nnc2c1=O` showed an IC50 of over 99500 nM.
To `O=C(c1cc(=O)[nH]c2ccccc12)N1CCN(c2ccc(F)cc2)CC1` belongs 16500 nM; to `O=C(Nc1cncc2ccccc12)C1(CNc2c[nH]c(=O)[nH]c2=O)CCOc2cc(Cl)ccc21` (stereo unspecified), 5360 nM.
With `Cc1ccc(Nc2ccccc2C(=O)N2CCC(C3CCNC3)CC2)cc1` (stereo unspecified) the figure was over 99500 nM; with `COc1ccccc1OCCNC(=O)c1cc(N)cc2ccccc12`, over 99500 nM.
With `CCN(C(=O)c1ccco1)C(C(=O)NCCc1cccc(F)c1)c1cccnc1` (stereo unspecified) the figure was over 99500 nM.
With `O=C(Cn1nnc2ccccc21)N(Cc1cccc(Cl)c1)c1ccc(N2CCOCC2)cc1`, the IC50 came out at 3700 nM.
With `O=C(Cc1cc(Cl)cc(Nc2ccc([N+](=O)[O-])c3ccccc23)c1)Nc1cncc2ccccc12` the figure was 2140 nM; with `C=CC(=O)N(c1ccc(C2(C)CC2)cc1)C(C(=O)Nc1ccc(Br)cc1)c1cccnc1` (stereo unspecified), 83700 nM and 81200 nM.
To `Cn1nc2c(c1C(=O)N(c1ccc(C(C)(C)C)cc1)C(C(=O)NCCc1cccc(F)c1)c1cccnc1)CS(=O)(=O)CC2` (stereo unspecified) belongs over 99500 nM.
To `NS(=O)(=O)c1ccc(CNC(=O)CC2(C(=O)Nc3cncc4ccccc34)CCOc3ccc(Cl)cc32)cc1` (stereo unspecified) belongs 3720 nM.
Regarding `CN1C(=O)CCc2cc(N(C(=O)c3cocn3)C(C(=O)NCCc3cccc(F)c3)c3cccnc3)ccc21` (stereo unspecified), the IC50 stood at 63500 nM.
`COc1ccc2cncc(NC(=O)[C@@]3(OC)CCOc4ccc(Cl)cc43)c2c1` (stereo in doubt) had an IC50 of 4180 nM. This IC50 lies about 15-fold lower than the previous one.
To `Cn1cccc(C(C(=O)NCCc2cccc(F)c2)N(C(=O)c2cocn2)c2ccc(C(C)(C)C)cc2)c1=O` (stereo unspecified) belongs over 99500 nM; to `CC(C)Sc1ccccc1Nc1cc(Cl)cc(CC(=O)Nc2cncc3ccccc23)c1`, 2010 nM.
To `N#CCN1Cc2ccc(Cl)cc2C(C(=O)Nc2cncc3ccccc23)C1` (stereo unspecified) belongs 335 nM; to `CCc1cc(F)ccc1-c1cc(Cl)cc(CC(=O)Nc2cnccc2C)c1`, 31600 nM; to `CC(C)C[C@@H](NC(=O)[C@@H](Cc1ccccc1)NC(=O)[C@H](N)Cc1ccccc1)C(=O)N[C@H](CCCCN)C(=O)N1CCC(N)(C(=O)O)CC1` (stereo in doubt), over 99000 nM.
With `CS(=O)(=O)c1ccc2c(NC(=O)C3CN(S(=O)(=O)CC4(C#N)CC4)Cc4ccc(Cl)cc43)cncc2c1` (stereo unspecified) the figure was 58.2 nM and 117 nM.
On to `N#Cc1cc(CN2CCN(C(=O)CCl)CC2)c2ccccc2c1`, for which the IC50 amounted to 4610 nM.
For the molecule `CNc1ccc(N(C(=O)Cn2nnc3ccccc32)c2cccc(Cl)c2)cc1`, the IC50 came out at 5340 nM.
`C=CC(=O)N(c1ccc(C(C)(C)C)cc1)C(C(=O)NCc1ccc(F)cc1)c1cccnc1` (stereo unspecified) gave an IC50 of 23300 nM.
To `O=C(Cc1cc(Cl)cc(Nc2c(Cl)cccc2[N+](=O)[O-])c1)Nc1cncc2ccccc12` belongs 2370 nM.
`CN(C)C(=O)C(CNC(=O)[C@@H](c1ccccc1)N1Cc2ccccc2C1=O)c1ccccc1` (stereo in doubt): the IC50 was over 99500 nM.
With `N#Cc1cc(Cl)c(Nc2cc(Cl)cc(CC(=O)Nc3cncc4ccccc34)c2)c(Cl)c1` the figure was 1790 nM.
With `COc1ccccc1NC1CN(C(=O)c2cc(=O)[nH]c3ccccc23)C1` the figure was over 99500 nM; with `Cc1cccc2c(NC(=O)Cc3cccc(Cl)c3)cncc12`, over 99500 nM; with `O=C(Cc1cc(Cl)cc(Nc2cccc(C(F)(F)F)c2F)c1)Nc1cncc2ccccc12`, 1840 nM.
To `Cc1ccncc1NC(=O)Cc1cc(Cl)cc(OCc2ncn[nH]2)c1` belongs 37000 nM; to `COc1cc(OC)nc(C#N)n1`, over 99500 nM; to `N#Cc1cc(F)c(Nc2cc(Cl)cc(CC(=O)Nc3cncc4ccccc34)c2)cc1F`, 2120 nM.
`O=C(Cc1cccc(Cl)c1)NC1CS(=O)(=O)Cc2ccccc21` (stereo unspecified) returned an IC50 of over 99500 nM.
`Cc1nnc(C2CCN(C(=O)c3ccc(Br)cc3)CC2)[nH]1`: the IC50 is over 99500 nM.
As to `CC(C)(C)c1ccc(N(C(=O)c2ccn[nH]2)C(C(=O)NCCc2cccc(F)c2)c2cccnc2)cc1` (stereo unspecified), the IC50 is 1780 nM.
Molecule `O=C(NC1CCCCC1)[C@@H]1CN(C(=O)CCl)CCN1S(=O)(=O)c1ccsc1` (stereo in doubt) came in with an IC50 of 1140 nM.
With `CC[C@]1(c2ccc(Nc3cc(Cl)cc(CC(=O)Nc4cncc5ccccc45)c3)cc2)CCC(=O)NC1=O` (stereo in doubt) the figure was 1910 nM; with `O=C(NCCc1cccc(F)c1)C(c1cccnc1)N(C(=O)c1cnc[nH]1)C1CCN(c2ccccc2)C1` (stereo unspecified), over 99000 nM.
To `COc1ccc(Nc2cc(Cl)cc(CC(=O)Nc3cncc4ccccc34)c2)c([N+](=O)[O-])c1` belongs 2120 nM.
With `CC(C)c1nc(CN(C)c2cc(Cl)cc(CC(=O)Nc3cncc4ccccc34)c2)cs1` the figure was 2630 nM; with `O=CN1CCC(OC(=O)c2c[nH]nc2-c2ccc(Cl)cc2)CC1`, over 99500 nM.
On to `Cc1ccccc1NC(=O)CC1SC(=O)N(c2ccccc2)C1=O` (stereo unspecified), for which the IC50 was determined as 443 nM.
To `CCCc1cc2c(cc1S(=O)(=O)N1CCN(c3cccc(Cl)c3Cl)CC1)OCO2` belongs over 99500 nM.
`CC(NC(=O)c1ccc2oc(=S)[nH]c2c1)c1nnc2ccccn12` (stereo unspecified) yielded an IC50 of over 99500 nM.
With `CCOc1ccc(N(C(=O)c2cocn2)C(C(=O)NCCc2cccc(F)c2)c2cccnc2)cc1` (stereo unspecified) the figure was 15500 nM; with `CSc1ncc(C#N)c(Nc2cc(Cl)cc(CC(=O)Nc3cncc4ccccc34)c2)n1`, 1840 nM; with `Cc1cccn2ncc(NC(=O)C3CNC(=O)c4ccc(Cl)cc43)c12` (stereo unspecified), 2400 nM.
Take `O=C(CCl)N1CCN(S(=O)(=O)c2cccs2)CC1`: the half-inhibitory concentration (IC50) is 2070 nM and 2260 nM.
With `C/C=C/C=C/C(=O)N1CC=C(c2c[nH]c3ncccc23)CC1` the figure was over 99500 nM.
To `NS(=O)(=O)c1n[nH]cc1C(=O)NC[C@@]1(C(=O)Nc2cncc3ccccc23)CCOc2ccc(Cl)cc21` (stereo in doubt) belongs 1990 nM; to `O=C(CN1CC(C(=O)Nc2cncc3cc(F)ccc23)c2cc(Cl)ccc2C1=O)NC1CC1` (stereo unspecified), 556 nM.
With `N#Cc1cccc(NC(=O)Nc2cncc(N)c2)c1` the figure was 54300 nM; with `CC(C)(C)c1ccc(N(C(=O)c2ccco2)C(C(=O)Nc2ccccc2)c2cccnc2)cc1` (stereo unspecified), 11200 nM; with `CN1CCN(c2ncc(C(C(=O)NCCc3cccc(F)c3)N(C(=O)c3cocn3)c3ccc(C(C)(C)C)cc3)cn2)CC1` (stereo unspecified), over 99500 nM.
For `CC1(CS(=O)(=O)N2Cc3ccc(Cl)cc3C3(CCN(c4cncc5ccccc45)C3=O)C2)CC1` (stereo unspecified), the IC50 worked out at 265 nM.
To `Cc1ccncc1OCCNC(=O)C(C)(C)c1cccc(Cl)c1` belongs over 99500 nM; to `O=C(Cc1cc(Cl)cc(Nc2ccc(C(F)(F)F)cc2[N+](=O)[O-])c1)Nc1cncc2ccccc12`, 2240 nM.
With `O=C(c1ccc(N2CCCC2)nc1)N1CCCC(c2ccn[nH]2)C1` (stereo unspecified) the figure was over 99500 nM; with `CN1C(=O)c2ccc(Nc3cc(Cl)cc(CC(=O)Nc4cncc5ccccc45)c3)cc2C1=O`, 1660 nM; with `O=C(CCl)N1CCN(Cc2cc(Cl)cc(Cl)c2)CC1`, 1890 nM.
To `O=C(Cc1cccc(Cl)c1)NC1C(=O)NCc2ccccc21` (stereo unspecified) belongs over 99500 nM.
For the molecule `CN(C)c1ccc(C(Cc2ccsc2)C(=O)Nc2nnc3ccccn23)cc1` (stereo unspecified), the IC50 was over 99500 nM.
In turn, `CC(=O)C(=O)N1CCN(Cc2cccc(Cl)c2)[C@@H](CC(C)C)C1` (stereo in doubt) gave an IC50 of over 99500 nM.
With `NS(=O)(=O)C1Cc2ccccc2N(CCNS(=O)(=O)c2ccccc2)C1` (stereo unspecified) the figure was over 99500 nM; with `C[C@H](Nc1cc(Cl)cc(CC(=O)Nc2cncc3ccccc23)c1)c1ccc([N+](=O)[O-])cc1` (stereo in doubt), 1450 nM.
